According to publication PMC9697349, “Mouse Pharmacokinetics and In Vitro Metabolism of SH-11037 and SH-11008, Synthetic Homoisoflavonoids for Retinal Neovascularization” (Pharmaceutics, 2022):

Assay: Stability of SH-11037 in dog plasma
Type: in vitro ADME
Conditions: beagle, pH 7.4, SH-11037 1 µM, 37 °C, read-out: half-life (t1/2) of hydrolysis to SH-11008
Method: SH-11037 (1 μM) was incubated in triplicate in 0.1 M phosphate buffer (pH 7.4) or in mouse, dog, and human plasma to investigate its stability. SH-11037 (40 μM) in 50 vol% aqueous CH3CN was mixed with 0.1 M phosphate buffer (pH 7.4) or plasma diluted 3-fold with 0.1 M phosphate buffer (pH 7.4) to a final volume of 160 μL and a final concentration of 1 μM. The resulting solutions were then incubated at 37 °C in a shaking water bath. The incubations were terminated at selected times by adding 160 µL of ice-cold CH3CN containing glipizide (500 ng/mL) as the internal standard (IS). The resulting mixture was vortexed, sonicated, and centrifuged at 3000× g for 20 min. Aliquots of the supernatant were subjected to LC-MS/MS analysis described below in Section 2.6.2.
The LC-MS/MS system consisted of Agilent 1290 Infinity HPLC system and Agilent 6530 Accurate-Mass Quadrupole Time-of-Flight (Q-TOF) mass spectrometer equipped with dual AJS ESI ion source (Agilent Technologies Korea, Seoul, Korea). Chromatographic separation was performed on an Agilent Eclipse Plus C18 column (2.1 × 100 mm, 3.5 μm) with a Phenomenex Security Guard C18 guard column (4 × 20 mm) maintained at 40 °C. The mobile phase consisted of 0.1% formic acid in deionized water (A) and 0.1% formic acid in CH3CN (B): 0~2 min 5% B, 2~7 min to 95% B, and 7~10 min 95% B. Total run time including a 5 min equilibration time was 15 min. […]

COc1ccc(CC2COc3cc(OC)c(OC)c(OC)c3C2=O)cc1OC(=O)[C@H](Cc1ccccc1)NC(=O)OC(C)(C)C (stereo partly shown) [SH-11037]
half-life at 1 µM: 1.15 h
